According to patent US5358947A, “Angiotensin II receptor blocking 2,3-substituted pyrazolo[1,5-a]-1,3,5-triazin-4(3H)-ones” (American Cyanamid Company, priority 1993, dated 1994):
Where a name gives a salt, the structure may show the parent alone.

Target: T1, Angiotensin II Receptor (Bos taurus, UniProt P25104)
T1 construct: The brownish tissue forming the adrenal cortex is scraped off and finely minced with scissors before homogenization; tissue local slaughter house (Maxwell-Cohen); host or cells: beef adrenal cortex, microsomal membranes (100,000×g pellet)
T1 sequence (P25104 1-359): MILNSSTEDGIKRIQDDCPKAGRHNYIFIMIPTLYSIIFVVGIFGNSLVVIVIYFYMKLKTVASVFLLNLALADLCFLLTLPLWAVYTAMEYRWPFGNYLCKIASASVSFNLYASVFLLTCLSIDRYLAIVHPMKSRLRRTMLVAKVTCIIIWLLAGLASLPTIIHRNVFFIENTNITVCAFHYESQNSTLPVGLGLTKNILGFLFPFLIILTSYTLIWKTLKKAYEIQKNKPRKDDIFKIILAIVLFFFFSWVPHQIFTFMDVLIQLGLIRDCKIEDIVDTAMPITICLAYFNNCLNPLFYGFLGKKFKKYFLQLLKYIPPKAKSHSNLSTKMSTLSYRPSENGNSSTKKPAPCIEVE
Assay: Angiotensin II receptor binding assay ([125I](Sar1,Ile8)AngII displacement, beef adrenal cortex membranes)
Conditions: 60 minutes, room temperature
Description: Beef adrenals are obtained from a local slaughter house (Maxwell-Cohen). [^125 I](Sar^1,Ile^8)AngII, S.A. 2200 Ci/mmole, is purchased from Dupont (NEN®, Boston, Mass.). all unlabeled AngII analogs, Dimethylsulfoxide (DMSO), nucleotides, bovine serum albumin (BSA) are purchased from Sigma Chemical Co , St Louis, Mo. U.S.A.
Approximately sixteen (16) to twenty (20) beef adrenal glands are processed as follows: fresh adrenal glands received on crushed ice are cleaned of fatty tissues and the tough membranes encapsulating the glands are removed and discarded. The brownish tissue forming the adrenal cortex is scraped off and finely minced with scissors before homogenization. Care is taken to avoid contamination with medullary tissue during dissection. The scraped cortices are suspended in twenty volumes of an ice-cold buffer medium consisting of 10 mM Tris.HCl (pH 7.4 at 22° C.) and containing 1.0 mM EDTA and 0.2M sucrose. Unless otherwise indicated, all subsequent operations are done at 4° C. The tissue is homogenized in a glass homogenizer with a motor driven teflon pestle with a clearance of 1.0 mm. The homogenate is centrifuged first at low speed (3,000×g) for 10 minutes. The resulting pellet is discarded and the supernatant fluid recentrifuged at 10,000×g of 15 minutes to give a P2 pellet. This P2 pellet is discarded and the liquid phase is carefully decanted off in clean centrifuge tubes and recentrifuged at high speed (100,000×g) for 60 minutes. The translucent final pellet is harvested and combined in a small volume (20-50.0 ml) of 50.0 mM Tris.HCl buffer, pH 7.2. A 100 ul aliquot is withdrawn and the protein content of the preparation is determined by the Lowry's method (Lowry, O. H., Rosebrough, N. F., Farr, A. L. and Randall, R. J., Protein measurement with Folin phenol reagent. J. Biol. Chem., […], 265-275, 1951). The pelleted membrane is reconstituted in 50.0 mM Tris.HCl buffer containing 0.1 mM of phenylmethylsulfonyl fluoride (PMSF) to give approximately a protein concentration of 2.5 mg per ml of tissue suspension. The membrane preparation is finally aliquoted in 1.0 ml volumes and stored at -70° C. until use in the binding assays.
Binding of[^125 I](Sar^1,Ile^8)AngII
The binding of [^125 I](Sar^1 Ile^8)AngII to microsomal membranes is initiated by the addition of reconstituted membranes (1:10 vols.) in freshly made 50.0 mMTris.HCl buffer, pH 7.4 containing 0.25% heat inactivated bovine serum albumin (BSA): 80 ul membrane protein (10 to 20 ug/assay) to wells already containing 100 ul of incubatin buffer (as described above) and 20 ul [^125 I](Sar^1,Ile^8)AngII (Specific Activity 2200 Ci/mmole). Non-specific binding is measured in the presence of 1.0 uM unlabeled (Sar^1,Ile^8)AngII, added in 20 ul volume. Specific binding for [^125 I](Sar^1, Ile^8)AngII is greater than 90% In competition studies, experimental compounds are diluted in dimethylsulfoxide (DMSO) and added in 20 ul to wells before the introduction of tissue membranes. This concentration of DMSO is found to have no negative effects on the binding of [^125 I](Sar^1, Ile^8)AngII to the membranes. Assays are performed in triplicate. The wells are left undisturbed for 60 minutes at room temperature. Following incubation, all wells are harvested at once with a Brandel® Harvester especially designed for a 96 well plate (Brandel®Biomedical Research & Development Labs. Inc., Gaithersburg, Md., U.S.A.). The filter discs are washed with 10×1.0 ml of cold 0.9% NaCl to remove unbound ligand. […] This method is routinely used. The filters are removed from the filter grid and counted in a Parkard® Cobra Gamma Counter for 1 minute. (Packard Instrument Co., Downers Grove, Ill., U.S.A.). The binding data are analyzed by the non-linear interactive "LUNDON-1" program (LUNDON SOFTWARE Inc., Cleveland, Ohio U.S.A.). […]

Row | Structure (SMILES) | IC50
1 | CCCCc1nc2cc(-c3ccccc3)nn2c(=O)n1Cc1ccc(-c2ccccc2-c2nnn[nH]2)cc1 [Example 10, 2-Butyl-7-phenyl-3-[[2'-(1H-tetrazol-5-yl)[1,1'-biphenyl]-4-yl]methyl]pyrazolo[1,5-a]-1,3,5-triazin-4(3H)-one] | 0.76 µM
2 | CCCCc1nc2cc(-c3ccc(F)cc3)nn2c(=O)n1Cc1ccc(-c2ccccc2-c2nnn[nH]2)cc1 [Example 12, 2-Butyl-7-(4-fluorophenyl)-3-[[2'-(1H-tetrazol-5-yl)[1,1'-biphenyl]-4-yl]methyl]pyrazolo[1,5-a]-1,3,5-triazin-4(3H)-one] | 0.063 µM
3 | CCCCc1nc2ccnn2c(=O)n1Cc1ccc(-c2ccccc2-c2nn[nH]n2)cc1 [Example 17, 2-Butyl-3-[[2'-(1H-tetrazol-5-yl)[1,1'-biphenyl]-4-yl]methyl]pyrazolo[1,5-a]-1,3,5-triazin-4(3H) -one] | 1.2 µM
4 | CCCCc1nc2cc(-c3ccco3)nn2c(=O)n1Cc1ccc(-c2ccccc2-c2nnn[nH]2)cc1 [Example 11, 2-Butyl-7-(2-furanyl)-3-[[2'-(1H-tetrazol-5-yl)[1,1'-biphenyl]-4-yl]methyl]pyrazolo[1,5-a]-1,3,5-triazin-4(3H)-one] | 0.67 µM

Results, then the compound that gave them:

Row | IC50 | Structure (SMILES)
5 | 3 µM | CCCCc1nc2ccnn2c(=O)n1Cc1ccc(-c2ccccc2-c2nn[nH]n2)cc1 [Example 21, 2-Butyl-3-[[2'-(1H-tetrazol-5-yl)-[[1,1'-biphenyl]-4-yl]methyl]-pyrazolo[1,5-a]-1,3,5-triazin-4(3H)-one potassium salt]
6 | 4 µM | CCCCc1nc2c(Br)cnn2c(=O)n1Cc1ccc(-c2ccccc2-c2nn[nH]n2)cc1 [Example 20]
